The values below come from patent US8961927B2, “Agents for magnetic imaging method” (Bracco Imaging S.p.A., priority 2002, dated 2015).

Common to all, as to format: cell-based
In data set [1] the test system is human hepatoma cells HepG2. The data set is described as follows: Differential uptake in hepatocytes and hepatoma cell lines HepG2, EBSS without glucose, compound of Example 3. The settings on record: substrate 5.1 mM, time course, FIG. 2. The procedure: The cells were cultured as in Example 12 above. The uptake experiments were performed in 5 ml EBSS without glucose to avoid competition between this compound and the test compound.
The substrate concentration was 5.1 mM and a time course analysis was done.

The subject of data set [2] is panel of cancer cell lines. The data set is described as follows: Uptake in a panel of cancer cell lines compared with healthy hepatocytes, compound of Example 3. To be noted: substrate 5.1 mM; after 2 hours; FIG. 3. The procedure:
The substrate concentration was 5.1 mM and the uptake was measured after 2 hours from the administration of the test compound.

The next data set concerns human hepatoma cells HTC. The data set is described as follows: Differential uptake in rat hepatocytes and human hepatoma cells HTC, time course. To be noted: substrate 1.3 mM, 37° C. in EBSS. The protocol:
This experiment has been carried out as follows:
Rat hepatocytes were cultured in M199 medium supplemented with 2 mg/ml bovine serum albumin (BSA), 3.6 mg/ml Hepes, 100 U/ml penicillin, 100 U/μg streptomycin, and 10 nmol/insulin; HTC cells were cultured in RPMI 1640 medium supplemented with 10% foetal bovine serum, 100 U/ml penicillin and 100 U/μg streptomycin.
The uptake experiments were performed in 5 ml EBSS, Earl's Balanced Salt Solution, (CaCl2 0.266 g/l; KCl 0.4 g/l; NaCl 6.8 g/l; glucose 1 g/l; MgSO4 0.204 g/l; NaH2PO4 0.144 g/l; NaHCO3 2.2 g/l).
[…] The substrate concentration was for both cell lines 1.3 mM.

In the case of “Gadolinium Complex of 3,6,9-triaza-3,6,9-tricarboxymethylundecanoic acid bis-glucopyranosylamide [Example 3]”, the “uptake in human hepatoma cells HepG2 compared with hepatocyte” value in data set [1] is listed as “higher uptake”. Also, the “uptake of Gd in cancer cell lines compared with healthy hepatocytes” value in data set [2] is on record as “increased in all the cancer cell lines”.

“Gadolinium Complex of [4-(1,6,10-triazaundecan)-phenyl-aminocarbonylmethyl]-1,4,7,10-tetraazacyclododecan-4,7,10-triacetic acid [Example 11]”: the “uptake by the human hepatoma cells HTC relative to the one in hepatocytes” value in the data set with human hepatoma cells HTC (after 0.5 hour) is listed as “⅓”; in the data set on human hepatoma cells HTC (after six hours), “more than 4 times”; in the data set on human hepatoma cells HTC (at 2 hours), “more than 3 times”.
